According to PubChem BioAssay AID1963843 (Molecular Pharmacology Branch, DTP, NCI, 2024):

Test system: 616215-338-R-J1-PDC complex spheroid viability
Test: Anticancer human tumor 616215-338-R-J1-PDC patient-derived colon adenocarcinoma cell line growth inhibition [POLQ]
Conditions: for IC50: curve of first compound; for viability, T/C: stronger effect = lower value
How it was run: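 Complex spheroid viability model combining PDC tumour cells with endothelial (HUVEC) and MSC stromal cells. Novobiocin, ART-558 or RP6685 were tested singly and in combination with standard and investigational anticancer drugs. Each was titrated in half-log steps from near clinical Cmax, or from 10 microM where Cmax was unknown.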

[1] = second compound 0.0316 µM, first compound 0.0316 µM
[2] = second compound 0.0316 µM, first compound 0.1 µM
[3] = second compound 0.0316 µM, first compound 0.316 µM
[4] = second compound 0.0316 µM, first compound 1 µM
[5] = second compound 0.0316 µM, first compound 3.16 µM
[6] = second compound 0.0316 µM, first compound 10 µM
[7] = second compound 0.1 µM, first compound 0.0316 µM
[8] = second compound 0.1 µM, first compound 0.1 µM
[9] = second compound 0.1 µM, first compound 0.316 µM
[10] = second compound 0.1 µM, first compound 1 µM
[11] = second compound 0.1 µM, first compound 3.16 µM
[12] = second compound 0.1 µM, first compound 10 µM
[13] = second compound 0.316 µM, first compound 0.0316 µM
[14] = second compound 0.316 µM, first compound 0.1 µM
[15] = second compound 0.316 µM, first compound 0.316 µM
[16] = second compound 0.316 µM, first compound 1 µM
[17] = second compound 0.316 µM, first compound 3.16 µM
[18] = second compound 0.316 µM, first compound 10 µM
[19] = second compound 1 µM, first compound 0.0316 µM
[20] = second compound 1 µM, first compound 0.1 µM
[21] = second compound 1 µM, first compound 0.316 µM
[22] = second compound 1 µM, first compound 1 µM
[23] = second compound 1 µM, first compound 3.16 µM
[24] = second compound 1 µM, first compound 10 µM
[25] = second compound 3.16 µM, first compound 0.0316 µM
[26] = second compound 3.16 µM, first compound 0.1 µM
[27] = second compound 3.16 µM, first compound 0.316 µM
[28] = second compound 3.16 µM, first compound 1 µM
[29] = second compound 3.16 µM, first compound 3.16 µM
[30] = second compound 3.16 µM, first compound 10 µM
[31] = second compound 10 µM, first compound 0.0316 µM
[32] = second compound 10 µM, first compound 0.1 µM
[33] = second compound 10 µM, first compound 0.316 µM
[34] = second compound 10 µM, first compound 1 µM
[35] = second compound 10 µM, first compound 3.16 µM
[36] = second compound 10 µM, first compound 10 µM
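Also: spheroids exposed to compounds for one week before readout.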
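For viability, T/C in this document: percent viability relative to DMSO vehicle wells taken as 100%.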

## CC1COCCN1c1cc(C2(O)CC3CCC(C2)O3)c2cnn(-c3ccn[nH]3)c2n1 (stereo unspecified) + COC1C(OC(N)=O)C(O)C(Oc2ccc3c(O)c(NC(=O)c4ccc(O)c(CC=C(C)C)c4)c(=O)oc3c2C)OC1(C)C
Second compound 0.0316 µM
  IC50: 1990 nM
Second compound 0.1 µM
  IC50: 2050 nM
Second compound 0.316 µM
  IC50: 1830 nM
Second compound 1 µM
  IC50: 2040 nM
Second compound 3.16 µM
  IC50: 1290 nM
Second compound 10 µM
  IC50: 960 nM
[1]
  viability, T/C: 109%
[2]
  viability, T/C: 91.5%
[3]
  viability, T/C: 71%
[4]
  viability, T/C: 64.1%
[5]
  viability, T/C: 39.5%
[6]
  viability, T/C: 35.6%
[7]
  viability, T/C: 102%
[8]
  viability, T/C: 91.4%
[9]
  viability, T/C: 72%
[10]
  viability, T/C: 57.6%
[11]
  viability, T/C: 46.7%
[12]
  viability, T/C: 36.5%
[13]
  viability, T/C: 106%
[14]
  viability, T/C: 90.2%
[15]
  viability, T/C: 69.4%
[16]
  viability, T/C: 60.1%
[17]
  viability, T/C: 42.7%
[18]
  viability, T/C: 30.5%
[19]
  viability, T/C: 105%
[20]
  viability, T/C: 90.6%
[21]
  viability, T/C: 74.3%
[22]
  viability, T/C: 57.1%
[23]
  viability, T/C: 47.8%
[24]
  viability, T/C: 28%
[25]
  viability, T/C: 99.4%
[26]
  viability, T/C: 86.8%
[27]
  viability, T/C: 64.5%
[28]
  viability, T/C: 50.3%
[29]
  viability, T/C: 46.2%
[30]
  viability, T/C: 21.6%
[31]
  viability, T/C: 100%
[32]
  viability, T/C: 79.3%
[33]
  viability, T/C: 57.4%
[34]
  viability, T/C: 53.2%
[35]
  viability, T/C: 40.5%
[36]
  viability, T/C: 25.2%

## CCc1cc2c(N3CCc4c(cc(Cn5ccnc5)cc4-c4cn(C)nc4C(F)(F)F)C3=O)ccnc2c(OC)n1 + COC1C(OC(N)=O)C(O)C(Oc2ccc3c(O)c(NC(=O)c4ccc(O)c(CC=C(C)C)c4)c(=O)oc3c2C)OC1(C)C
Second compound 0.0316 µM
  IC50: > 10000 nM
Second compound 0.1 µM
  IC50: > 10000 nM
Second compound 0.316 µM
  IC50: > 10000 nM
Second compound 1 µM
  IC50: 9750 nM
Second compound 3.16 µM
  IC50: 9640 nM
Second compound 10 µM
  IC50: 8330 nM
[1]
  viability, T/C: 97.2%
[2]
  viability, T/C: 108%
[3]
  viability, T/C: 111%
[4]
  viability, T/C: 106%
[5]
  viability, T/C: 80%
[6]
  viability, T/C: 52.8%
[7]
  viability, T/C: 106%
[8]
  viability, T/C: 108%
[9]
  viability, T/C: 92.9%
[10]
  viability, T/C: 106%
[11]
  viability, T/C: 77%
[12]
  viability, T/C: 50.3%
[13]
  viability, T/C: 96%
[14]
  viability, T/C: 103%
[15]
  viability, T/C: 115%
[16]
  viability, T/C: 102%
[17]
  viability, T/C: 66.5%
[18]
  viability, T/C: 53.8%
[19]
  viability, T/C: 105%
[20]
  viability, T/C: 98.7%
[21]
  viability, T/C: 99%
[22]
  viability, T/C: 100%
[23]
  viability, T/C: 81.4%
[24]
  viability, T/C: 49.3%
[25]
  viability, T/C: 106%
[26]
  viability, T/C: 100%
[27]
  viability, T/C: 103%
[28]
  viability, T/C: 98.2%
[29]
  viability, T/C: 74.8%
[30]
  viability, T/C: 49.2%
[31]
  viability, T/C: 109%
[32]
  viability, T/C: 97.7%
[33]
  viability, T/C: 102%
[34]
  viability, T/C: 93.1%
[35]
  viability, T/C: 67.7%
[36]
  viability, T/C: 46.7%

## CC(=O)O[C@H]1C(=O)[C@@]2(C)[C@H]([C@H](OC(=O)c3ccccc3)[C@]3(O)C[C@H](OC(=O)[C@H](O)[C@@H](NC(=O)c4ccccc4)c4ccccc4)C(C)=C1C3(C)C)[C@]1(OC(C)=O)CO[C@@H]1C[C@@H]2O + Cc1cccc(N(C)C(=O)C2C(O)CCN2c2nc(C)cc(C(F)(F)F)c2C#N)c1
Second compound 0.0316 µM
  IC50: < 9.49 nM
Second compound 0.1 µM
  IC50: < 9.49 nM
Second compound 0.316 µM
  IC50: < 9.49 nM
Second compound 1 µM
  IC50: < 9.49 nM
Second compound 3.16 µM
  IC50: < 9.49 nM
Second compound 10 µM
  IC50: < 9.49 nM
Second compound 0.0316 µM, first compound 0.00949 µM
  viability, T/C: 34.7%
Second compound 0.0316 µM, first compound 0.03 µM
  viability, T/C: 20.2%
Second compound 0.0316 µM, first compound 0.0949 µM
  viability, T/C: 20.4%
Second compound 0.0316 µM, first compound 0.3 µM
  viability, T/C: 18.9%
Second compound 0.0316 µM, first compound 0.949 µM
  viability, T/C: 19.3%
Second compound 0.0316 µM, first compound 3 µM
  viability, T/C: 19.1%
Second compound 0.1 µM, first compound 0.00949 µM
  viability, T/C: 31.6%
Second compound 0.1 µM, first compound 0.03 µM
  viability, T/C: 22.5%
Second compound 0.1 µM, first compound 0.0949 µM
  viability, T/C: 17.3%
Second compound 0.1 µM, first compound 0.3 µM
  viability, T/C: 21.5%
Second compound 0.1 µM, first compound 0.949 µM
  viability, T/C: 17.3%
Second compound 0.1 µM, first compound 3 µM
  viability, T/C: 17.4%
Second compound 0.316 µM, first compound 0.00949 µM
  viability, T/C: 39.5%
Second compound 0.316 µM, first compound 0.03 µM
  viability, T/C: 23.8%
Second compound 0.316 µM, first compound 0.0949 µM
  viability, T/C: 22.5%
Second compound 0.316 µM, first compound 0.3 µM
  viability, T/C: 15.8%
Second compound 0.316 µM, first compound 0.949 µM
  viability, T/C: 17.7%
Second compound 0.316 µM, first compound 3 µM
  viability, T/C: 16.4%
Second compound 1 µM, first compound 0.00949 µM
  viability, T/C: 36%
Second compound 1 µM, first compound 0.03 µM
  viability, T/C: 27.6%
Second compound 1 µM, first compound 0.0949 µM
  viability, T/C: 22.1%
Second compound 1 µM, first compound 0.3 µM
  viability, T/C: 13.1%
Second compound 1 µM, first compound 0.949 µM
  viability, T/C: 19%
Second compound 1 µM, first compound 3 µM
  viability, T/C: 18.8%
Second compound 3.16 µM, first compound 0.00949 µM
  viability, T/C: 40.9%
Second compound 3.16 µM, first compound 0.03 µM
  viability, T/C: 21.6%
Second compound 3.16 µM, first compound 0.0949 µM
  viability, T/C: 23.9%
Second compound 3.16 µM, first compound 0.3 µM
  viability, T/C: 15.6%
Second compound 3.16 µM, first compound 0.949 µM
  viability, T/C: 21.7%
Second compound 3.16 µM, first compound 3 µM
  viability, T/C: 17.4%
Second compound 10 µM, first compound 0.00949 µM
  viability, T/C: 33.5%
Second compound 10 µM, first compound 0.03 µM
  viability, T/C: 26.9%
Second compound 10 µM, first compound 0.0949 µM
  viability, T/C: 21.2%
Second compound 10 µM, first compound 0.3 µM
  viability, T/C: 14.6%
Second compound 10 µM, first compound 0.949 µM
  viability, T/C: 21.6%
Second compound 10 µM, first compound 3 µM
  viability, T/C: 14.6%
